From US10407467B2, “Polymyxin derivatives and their use in combination therapy together with different antibiotics” (priority 2013, dated 2019)
Values after ≈ are worked out from the molar mass of the structure shown. Values joined by “and” are separate entries in the source; they are usually repeats but may differ in a detail not shown here. Equal entries are not always repeated. Structures can show the parent of a compound that is named as a salt. Where two headings read alike, the source gives them in different places. One block for each compound: values may come before it. Bridge positions count the residues as written; N and C are the ends. Square brackets hold non-standard residues; d marks the D form. Peptide text beside a SMILES is read from it. * marks the point of attachment. ξ: configuration not given here. X12 = CC(C)C[C@H](N)[C@H](O)C(=O)*; Thr(3ξ) = CC(O)[C@H](N)C(=O)O; Dab = NCC[C@H](N)C(=O)O; X3 = O=C([C@H]1CCCNC1)*

Tests used:
Acinetobacter baumannii [1] = experiment: MIC, sole activity (no second agent); type: cell-based; conditions: Table 6A; no second agent; different supplier of Cation-adjusted MHB
Method in brief: (§1)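 Compound tested without a second agent in cation-adjusted MHB, up to four strains per species, inoculum at 0.5 McFarland from colonies grown 18-24 h on Mueller-Hinton agar. Run in duplicate, invalid beyond 2-fold disagreement, lower duplicate or modal repeat value given, expressed relative to Polymyxin B.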

Escherichia coli [2] = experiment: MIC, sole activity (no second agent); type: cell-based; conditions: Table 6A; no second agent; different supplier of Cation-adjusted MHB
Method in brief: as §1

Pseudomonas aeruginosa [3] = experiment: MIC, sole activity (no second agent); type: cell-based; conditions: Table 6A; no second agent; different supplier of Cation-adjusted MHB
Method in brief: as §1

Klebsiella pneumoniae [4] = experiment: MIC, sole activity (no second agent); type: cell-based; conditions: Table 6A; no second agent; different supplier of Cation-adjusted MHB
Method in brief: as §1

P. aeruginosa ATCC27853 = type: in vivo, Pseudomonas aeruginosa; conditions: ATCC27853, in vivo, iv, 5 mg/kg, 6 h
Procedure: Compounds were administered in solution by intravenous (IV) bolus injection into the lateral tail vein. […] At 1 hour post infection, 4 animals were humanely euthanized using pentabarbitone overdose to provide a pre-treatment control group. At 9 hours post infection, the clinical condition of all animals was assessed prior to them being humanely euthanized by pentabarbitone overdose. Animal weight was determined before both thighs were removed and weighed individually. Individual thigh tissue samples were homogenized in ice cold sterile phosphate buffered saline. Thigh homogenates were then quantitatively cultured onto CLED agar and incubated at 37° C. for 24 hours before colonies were counted.

HK-2 cell line = experiment: In vitro renal cell toxicity assay (resazurin reduction); type: cell-based, human
Acinetobacter baumannii [5] = experiment: MIC, compound in combination with a second agent (broth microdilution); type: cell-based; conditions: 1:1 (wt:wt) combination with Rifampicin; for MIC: Acinetobacter baumannii
Method in brief: (§2)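 Broth microdilution with inoculum from 18-24 h Mueller-Hinton agar colonies adjusted to 0.5 McFarland, up to four strains per species. Compound combined 1:1 w/w with second agent (e.g. rifampicin), mass as salt form; MIC is total drug concentration. Duplicates, lower value reported if within 2-fold; modal value for repeat tests.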

Escherichia coli [6] = experiment: as above; type: cell-based; conditions: 1:1 (wt:wt) combination with Rifampicin; for MIC: Escherichia coli
Method in brief: as §2

Pseudomonas aeruginosa [7] = experiment: as above; type: cell-based; conditions: 1:1 (wt:wt) combination with Rifampicin; for MIC: Pseudomonas aeruginosa
Method in brief: as §2

Klebsiella pneumoniae [8] = experiment: as above; type: cell-based; conditions: 1:1 (wt:wt) combination with Rifampicin; for MIC: Klebsiella pneumoniae
Method in brief: as §2

P. aeruginosa = experiment: MIC against panel of strains enriched for resistance to colistin or polymyxin B (CLSI), alone or 1:1 with rifampicin; type: cell-based, Pseudomonas aeruginosa; conditions: one value per strain of the panel
Procedure: (§3) […] For example, a well at 2 μg/mL consisted of 1 μg/mL test compound and 1 μg/mL rifampicin.
(§4) • where n indicates the number of strains within the panel for a particular organism.

K. pneumoniae = experiment: as above; type: cell-based, Klebsiella pneumoniae; conditions: one value per strain of the panel
Procedure: as §3, §4

[9] = MIC = total drug concentration, strain ATCC BAA-747
[10] = MIC = total drug concentration, strain CCUG57249
[11] = MIC = total drug concentration, strain NCTC 13423
[12] = MIC = total drug concentration, strain NCTC 13424
[13] = MIC is total drug concentration
[14] = MIC = total drug concentration, strain ATCC25922
[15] = MIC = total drug concentration, strain NCTC9001
[16] = MIC = total drug concentration, strain ATCC 27853
[17] = MIC = total drug concentration, strain ATCC CRM-9027
[18] = MIC = total drug concentration, strain ATCC-47
[19] = MIC = total drug concentration, strain CCUG 59626
[20] = MIC = total drug concentration, strain CCUG-59348

MIC A. baumannii ATCC BAA-747 (Acinetobacter baumannii [1]): 2 micrograms/mL
MIC A. baumannii NCTC 13424 (Acinetobacter baumannii [1]): 1 micrograms/mL
MIC E. coli ATCC25922 (Escherichia coli [2]): 0.5 micrograms/mL
MIC E. coli NCTC 13441 (Escherichia coli [2]): 0.5 micrograms/mL
MIC P. aeruginosa ATCC 27853 (Pseudomonas aeruginosa [3]): 0.5 micrograms/mL
MIC P. aeruginosa CCUG 59347 (Pseudomonas aeruginosa [3]): 2 micrograms/mL
MIC K. pneumoniae ATCC 4352 (Klebsiella pneumoniae [4]): 0.25 micrograms/mL
MIC K. pneumoniae ATCC BAA-2146 (Klebsiella pneumoniae [4]): 0.25 micrograms/mL
MIC A. baumannii ATCC BAA-747 (Acinetobacter baumannii [5]; [9]): ≤0.06 micrograms/mL
MIC A. baumannii CCUG57249 (Acinetobacter baumannii [5]; [10]): ≤0.06 micrograms/mL
MIC A. baumannii NCTC 13423 (Acinetobacter baumannii [5]; [11]): ≤0.06 micrograms/mL
MIC A. baumannii NCTC 13424 (Acinetobacter baumannii [5]; [12]): ≤0.06 micrograms/mL
MIC A. baumannii ATCC BAA-747 (Acinetobacter baumannii [5]; [13]): ≤0.06 micrograms/mL
MIC A. baumannii CCUG57249 (Acinetobacter baumannii [5]; [13]): ≤0.06 micrograms/mL
MIC A. baumannii NCTC 13423 (Acinetobacter baumannii [5]; [13]): ≤0.06 micrograms/mL
MIC A. baumannii NCTC 13424 (Acinetobacter baumannii [5]; [13]): ≤0.06 micrograms/mL
MIC E. coli ATCC25922 (Escherichia coli [6]; [14]): 0.125 micrograms/mL
MIC E. coli NCTC9001 (Escherichia coli [6]; [15]): ≤0.06 micrograms/mL
MIC E. coli ATCC25922 (Escherichia coli [6]; [13]): 0.125 micrograms/mL
MIC E. coli NCTC9001 (Escherichia coli [6]; [13]): ≤0.06 micrograms/mL
MIC P. aeruginosa ATCC 27853 (Pseudomonas aeruginosa [7]; [16]): ≤0.06 micrograms/mL
MIC P. aeruginosa ATCC CRM-9027 (Pseudomonas aeruginosa [7]; [17]): 0.125 micrograms/mL
MIC P. aeruginosa ATCC-47 (Pseudomonas aeruginosa [7]; [18]): ≤0.06 micrograms/mL
MIC P. aeruginosa CCUG 59626 (Pseudomonas aeruginosa [7]; [19]): ≤0.06 micrograms/mL
MIC P. aeruginosa ATCC 27853 (Pseudomonas aeruginosa [7]; [13]): ≤0.06 micrograms/mL
MIC P. aeruginosa ATCC CRM-9027 (Pseudomonas aeruginosa [7]; [13]): 0.125 micrograms/mL
MIC P. aeruginosa ATCC-47 (Pseudomonas aeruginosa [7]; [13]): ≤0.06 micrograms/mL
MIC P. aeruginosa CCUG 59626 (Pseudomonas aeruginosa [7]; [13]): ≤0.06 micrograms/mL
MIC K. pneumoniae ATCC-BAA-2146 (Klebsiella pneumoniae [8]; MIC = total drug concentration, strain ATCC-BAA-2146): 0.125 micrograms/mL
MIC K. pneumoniae CCUG-59348 (Klebsiella pneumoniae [8]; [20]): 2 micrograms/mL
MIC K. pneumoniae NCTC 13438 (Klebsiella pneumoniae [8]; MIC = total drug concentration, strain NCTC 13438): 0.125 micrograms/mL
MIC K. pneumoniae ATCC-BAA-2146 (Klebsiella pneumoniae [8]; [13]): 0.125 micrograms/mL
MIC K. pneumoniae CCUG-59348 (Klebsiella pneumoniae [8]; [13]): 2 micrograms/mL
MIC K. pneumoniae NCTC 13438 (Klebsiella pneumoniae [8]; [13]): 0.125 micrograms/mL
SMILES: CC(C)C[C@@H]1NC(=O)[C@@H](Cc2ccccc2)NC(=O)[C@H](CCN)NC(=O)[C@@H](NC(=O)[C@H](CCN)NC(=O)[C@@H](NC(=O)[C@H]2CCCNC2)[C@@H](C)O)CCNC(=O)[C@H]([C@@H](C)O)NC(=O)[C@H](CCN)NC(=O)[C@H](CCN)NC1=O [Example 37, (S)-Piperidine-3-carbonyl polymyxin B nonapeptide, trifluoroacetate salt] (X3-T[Dab][Dab][Dab][dF]L[Dab][Dab]T; lactam 3-C)
log reduction in bacterial counts compared to non-treated control (P. aeruginosa ATCC27853): 1.75 log
HK-2 IC50 rel to PMB (HK-2 cell line): 21

MIC A. baumannii ATCC BAA-747 (Acinetobacter baumannii [5]; [9]): ≤0.06 micrograms/mL
MIC A. baumannii CCUG57249 (Acinetobacter baumannii [5]; [10]): ≤0.06 micrograms/mL
MIC A. baumannii NCTC 13423 (Acinetobacter baumannii [5]; [11]): ≤0.06 micrograms/mL
MIC A. baumannii NCTC 13424 (Acinetobacter baumannii [5]; [12]): ≤0.06 micrograms/mL
MIC E. coli ATCC25922 (Escherichia coli [6]; [14]): ≤0.06 micrograms/mL
MIC E. coli NCTC9001 (Escherichia coli [6]; [15]): 0.125 micrograms/mL
MIC P. aeruginosa ATCC 27853 (Pseudomonas aeruginosa [7]; [16]): 0.125 micrograms/mL
MIC P. aeruginosa ATCC CRM-9027 (Pseudomonas aeruginosa [7]; [17]): 0.25 micrograms/mL
MIC P. aeruginosa ATCC-47 (Pseudomonas aeruginosa [7]; [18]): ≤0.06 micrograms/mL
MIC P. aeruginosa CCUG 59626 (Pseudomonas aeruginosa [7]; [19]): 0.125 micrograms/mL
MIC K. pneumoniae CCUG-59348 (Klebsiella pneumoniae [8]; [20]): 2 micrograms/mL
SMILES: CC(C)C[C@@H]1NC(=O)[C@@H](Cc2ccccc2)NC(=O)[C@H](CCN)NC(=O)[C@@H](NC(=O)[C@H](CCN)NC(=O)[C@@H](NC(=O)[C@@H](O)[C@@H](N)CC(C)C)C(C)O)CCNC(=O)[C@H](C(C)O)NC(=O)[C@H](CCN)NC(=O)[C@H](CCN)NC1=O (stereo partly drawn) [Example 41, (2S,3S)-3-Amino-2-hydroxy-5-methylhexanoyl polymyxin B nonapeptide, trifluoroacetate salt] (X12-[Thr(3ξ)][Dab][Dab][Dab][dF]L[Dab][Dab][Thr(3ξ)]; lactam 3-C)
log reduction in bacterial counts compared to non-treated control (P. aeruginosa ATCC27853): 2.73 log

MIC (P. aeruginosa; Pseudomonas aeruginosa, read-out: MIC Pseudomonas aeruginosa (n = 6), agent alone): 32 µg/mL (≈ 38.9 µM)
MIC (K. pneumoniae; Klebsiella pneumoniae, read-out: MIC Klebsiella pneumoniae (n = 11), agent alone): 16 µg/mL (≈ 19.4 µM)
MIC (Acinetobacter baumannii [5]; ATCCBAA747, MIC = total drug concentration, strain ATCC BAA-747, read-out: MIC A. baumannii ATCC BAA-747): 2 µg/mL
MIC (Acinetobacter baumannii [5]; NCTC13423, MIC = total drug concentration, strain NCTC 13423, read-out: MIC A. baumannii NCTC 13423): 1 µg/mL
MIC (Acinetobacter baumannii [5]; NCTC13424, MIC = total drug concentration, strain NCTC 13424, read-out: MIC A. baumannii NCTC 13424): 1 µg/mL
MIC (Acinetobacter baumannii [5]; MIC = total drug concentration, strain CCUG57249, read-out: MIC A. baumannii CCUG57249): 2 µg/mL
MIC (Escherichia coli [6]; MIC = total drug concentration, strain ATCC25922, read-out: MIC E. coli ATCC25922): 4 µg/mL
MIC (Escherichia coli [6]; MIC = total drug concentration, strain NCTC9001, read-out: MIC E. coli NCTC9001): 4 µg/mL
MIC (Pseudomonas aeruginosa [7]; ATCC47, MIC = total drug concentration, strain ATCC-47, read-out: MIC P. aeruginosa ATCC-47): 16 µg/mL
MIC (Pseudomonas aeruginosa [7]; ATCC27853, MIC = total drug concentration, strain ATCC 27853, read-out: MIC P. aeruginosa ATCC 27853): 16 µg/mL
MIC (Pseudomonas aeruginosa [7]; CCUG59626, MIC = total drug concentration, strain CCUG 59626, read-out: MIC P. aeruginosa CCUG 59626): 16 µg/mL
MIC (Pseudomonas aeruginosa [7]; MIC = total drug concentration, strain ATCC CRM-9027, read-out: MIC P. aeruginosa ATCC CRM-9027): 16 µg/mL
MIC (Klebsiella pneumoniae [8]; ATCC4352, MIC = total drug concentration, strain ATCC 4352, read-out: MIC K. pneumoniae ATCC 4352): 8 µg/mL
MIC (Klebsiella pneumoniae [8]; ATCCBAA2146, MIC = total drug concentration, strain ATCC-BAA-2146, read-out: MIC K. pneumoniae ATCC-BAA-2146): 16 µg/mL
MIC (Klebsiella pneumoniae [8]; CCUG59348, MIC = total drug concentration, strain CCUG-59348, read-out: MIC K. pneumoniae CCUG-59348): 32 µg/mL
MIC (Klebsiella pneumoniae [8]; NCTC13438, MIC = total drug concentration, strain NCTC 13438, read-out: MIC K. pneumoniae NCTC 13438): 16 µg/mL
SMILES: CO[C@H]1/C=C/O[C@@]2(C)Oc3c(C)c(O)c4c(O)c(c(/C=N/N5CCN(C)CC5)c(O)c4c3C2=O)NC(=O)/C(C)=C\C=C\[C@H](C)[C@H](O)[C@@H](C)[C@@H](O)[C@@H](C)[C@H](OC(C)=O)[C@@H]1C [Rifampicin, reference compound]
MIC Pseudomonas aeruginosa (n = 6) (P. aeruginosa; agent alone): 16 micrograms/mL and 32, 32, 32 micrograms/mL
MIC Klebsiella pneumoniae (n = 11) (K. pneumoniae; agent alone): 32 micrograms/mL and > 32 micrograms/mL and >32, 32, 32, micrograms/mL and 32, 32, >32, micrograms/mL and >32, >32 micrograms/mL
